Measurements: PubChem BioAssay AID248 (DTP/NCI, 2004)
Where “and” joins values, the source holds several entries; their conditions need not be identical. Equal values may be shown once. Toxic doses and inconclusive results are not listed. No stated cut-off is given here; in the data, active means T/C of 150% or more; inactive means T/C below 125%.

Test system: L1210 leukemia ip in BDF1 mice, survival T/C
Experiment: NCI In Vivo Anticancer Drug Screen. Data for tumor model L1210 Leukemia (intraperitoneal) in B6D2F1 (BDF1) mice
Settings: endpoint: mean survival time, higher = longer survival
Procedure, shortened: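 Tumor cells were implanted, animals were treated, and survival was followed. The result divides the treated measurement by the vehicle-control measurement.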

[1] = dose: 12.5 mg/kg/injection, schedule: Q04DX003 (ip), vehicle: saline
[2] = dose: 25.0 mg/kg/injection, schedule: Q04DX003 (ip), vehicle: saline
[3] = dose: 100.0 mg/kg/injection, schedule: Q04DX003 (ip), vehicle: saline with Tween-80
[4] = dose: 200.0 mg/kg/injection, schedule: Q04DX003 (ip), vehicle: saline with Tween-80
[5] = dose: 400.0 mg/kg/injection, schedule: Q04DX003 (ip), vehicle: saline with Tween-80
[6] = dose: 50.0 mg/kg/injection, schedule: Q04DX002 (ip), vehicle: Klucel (hydroxypropylcellulose) (HPC)
[7] = dose: 100.0 mg/kg/injection, schedule: Q04DX002 (ip), vehicle: Klucel (hydroxypropylcellulose) (HPC)
[8] = dose: 100.0 mg/kg/injection, schedule: Q04DX003 (ip), vehicle: saline
[9] = dose: 200.0 mg/kg/injection, schedule: Q04DX003 (ip), vehicle: saline
[10] = dose: 400.0 mg/kg/injection, schedule: Q04DX003 (ip), vehicle: saline
[11] = dose: 100.0 mg/kg/injection, schedule: Q04DX003 (ip), vehicle: Klucel (hydroxypropylcellulose) (HPC)
[12] = dose: 200.0 mg/kg/injection, schedule: Q04DX003 (ip), vehicle: Klucel (hydroxypropylcellulose) (HPC)
[13] = dose: 400.0 mg/kg/injection, schedule: Q04DX003 (ip), vehicle: Klucel (hydroxypropylcellulose) (HPC)
[14] = dose: 100.0 mg/kg/injection, schedule: Q01DX009 (ip), vehicle: saline with Tween-80
[15] = dose: 200.0 mg/kg/injection, schedule: Q01DX009 (ip), vehicle: saline with Tween-80
[16] = dose: 400.0 mg/kg/injection, schedule: Q01DX009 (ip), vehicle: saline with Tween-80
[17] = dose: 100.0 mg/kg/injection, schedule: Q01DX009 (ip), vehicle: Klucel (hydroxypropylcellulose) (HPC)
[18] = dose: 200.0 mg/kg/injection, schedule: Q01DX009 (ip), vehicle: Klucel (hydroxypropylcellulose) (HPC)
[19] = dose: 400.0 mg/kg/injection, schedule: Q01DX009 (ip), vehicle: Klucel (hydroxypropylcellulose) (HPC)
[20] = dose: 100.0 mg/kg/injection, schedule: Q04DX002 (ip), vehicle: saline with Tween-80
[21] = dose: 200.0 mg/kg/injection, schedule: Q04DX002 (ip), vehicle: saline with Tween-80
[22] = dose: 400.0 mg/kg/injection, schedule: Q04DX002 (ip), vehicle: saline with Tween-80
[23] = dose: 100.0 mg/kg/injection, schedule: Q01DX001 (ip), vehicle: saline

Measured: T/C

CCCCCCCCCCCC[N+](C)(C)CCn1cnc2c(N)ncnc21
inactive: dose: 6.25 mg/kg/injection, schedule: Q04DX003 (ip), vehicle: saline 106 % of control | [1] 109 % of control | [2] 103 % of control

Cc1cc(=O)[nH]c2c1CCCC2
inactive: [3] 92 % of control | [4] 97 % of control | [5] 101 % of control

O=C1CCCCc2nn(c3ccccc23)C(=O)CCCCc2nn1c1ccccc21
inactive: dose: 25.0 mg/kg/injection, schedule: Q04DX002 (ip), vehicle: Klucel (hydroxypropylcellulose) (HPC) 90 % of control | [6] 97 % of control | [7] 93 % of control

CCS(=O)(=O)/C=C/c1ccc2ccccc2n1
inactive: [7] 104 % of control | dose: 200.0 mg/kg/injection, schedule: Q04DX002 (ip), vehicle: Klucel (hydroxypropylcellulose) (HPC) 100 % of control

CNC(C(=O)OCc1ccccc1)C(C)C (stereo unspecified)
inactive: [8] 112 % of control | [9] 99 % of control | [10] 100 % of control

CC(C)=CCc1ccc(O)cc1
inactive: dose: 100.0 mg/kg/injection, schedule: Q01DX009 (ip), vehicle: saline + alcohol 95 % of control | [11] 96 % of control | [12] 100 % of control | [13] 95 % of control

O=[N+]([O-])c1cccc(S(=O)(=O)OCn2ncc3ccc([N+](=O)[O-])cc32)c1
inactive: dose: 5.0 mg/kg/injection, schedule: Q01DX001 (ip), vehicle: saline 94 % of control | dose: 10.0 mg/kg/injection, schedule: Q01DX001 (ip), vehicle: saline 100 % of control | dose: 20.0 mg/kg/injection, schedule: Q01DX001 (ip), vehicle: saline 100 % of control | dose: 40.0 mg/kg/injection, schedule: Q01DX001 (ip), vehicle: saline 97 % of control

Nc1ccc(N=Nc2ccc(S(=O)(=O)O)cc2)cc1
inactive: [14] 87 % of control | [15] 95 % of control | [16] 97 % of control

COc1ccc(OC)c(NC(=O)c2ccc(Cl)cc2Cl)c1
inactive: [17] 95 % of control | [18] 93 % of control | [19] 95 % of control

COc1cc(/C=N/N=C(\N)N[N+](=O)[O-])cc(OC)c1OC
inactive: dose: 100.0 mg/kg/injection, schedule: Q01DX001 (ip), vehicle: saline with Tween-80 114 % of control | dose: 200.0 mg/kg/injection, schedule: Q01DX001 (ip), vehicle: saline with Tween-80 97 % of control | dose: 400.0 mg/kg/injection, schedule: Q01DX001 (ip), vehicle: saline with Tween-80 96 % of control

CCCS(=O)(=O)N(CC)CC
inactive: [20] 97 % of control | [21] 101 % of control | [22] 87 % of control

O=CNC(CSSCC(NC=O)C(=O)O)C(=O)O (stereo unspecified)
inactive: [3] 101 % of control | [4] 103 % of control | [5] 90 % of control

CC(C)(C)C1CCC(=N[N+](C)(C)C)CC1 (stereo unspecified)
inactive: [23] 104 % of control

CC1CCCC(Oc2nc3c(c(=O)n(C)c(=O)n3C)n2C)C1 (stereo unspecified)
inactive: dose: 50.0 mg/kg/injection, schedule: Q01DX001 (ip), vehicle: other 93 % of control | dose: 100.0 mg/kg/injection, schedule: Q01DX001 (ip), vehicle: other 93 % of control | dose: 200.0 mg/kg/injection, schedule: Q01DX001 (ip), vehicle: other 88 % of control | dose: 400.0 mg/kg/injection, schedule: Q01DX001 (ip), vehicle: other 95 % of control

CCCCC1(C2CCCC2)NC(C)(C)CC(C)O1 (stereo unspecified)
inactive: [14] 95 % of control | [15] 104 % of control

Cc1ccccc1NC(=O)c1ccc([N+](=O)[O-])cc1
inactive: [14] 106 % of control | [3] 98 % of control | [15] 101 % of control | [4] 94 % of control | [16] 101 % of control | [5] 98 % of control

COC(=O)N1CC=CCN1C(=O)OC
inactive: [8] 94 % of control | [9] 116 % of control | [10] 115 % of control

COC(=O)c1cc(-c2ccccc2)[nH]c1-c1ccc2ccccc2n1
inactive: dose: 100.0 mg/kg/injection, schedule: Q01DX001 (ip), vehicle: steriod suspending solution 100 % of control | dose: 200.0 mg/kg/injection, schedule: Q01DX001 (ip), vehicle: steriod suspending solution 100 % of control | dose: 400.0 mg/kg/injection, schedule: Q01DX001 (ip), vehicle: steriod suspending solution 94 % of control

CCOC(=O)NCC(CCN(C)C)(CN(C)C)c1cccc2ccccc12 (stereo unspecified)
inactive: [6] 102 % of control | [7] 106 % of control

COc1ccc(CNCCO)cc1
inactive: dose: 100.0 mg/kg/injection, schedule: Q01DX009 (ip), vehicle: saline 96 % of control | [8] 96 % of control | dose: 200.0 mg/kg/injection, schedule: Q01DX009 (ip), vehicle: saline 91 % of control | [9] 98 % of control | dose: 400.0 mg/kg/injection, schedule: Q01DX009 (ip), vehicle: saline 97 % of control | [10] 93 % of control

CCOC(=O)c1ccccc1N(O)C(=O)NC12CC3CC(CC(C3)C1)C2
inactive: [3] 94 % of control | [4] 94 % of control | [5] 94 % of control

O=[N+]([O-])c1ccc(C(=NO)c2ccc([N+](=O)[O-])cc2)cc1
inactive: dose: 100.0 mg/kg/injection, schedule: Q01DX001 (ip), vehicle: Klucel (hydroxypropylcellulose) (HPC) 103 % of control | dose: 200.0 mg/kg/injection, schedule: Q01DX001 (ip), vehicle: Klucel (hydroxypropylcellulose) (HPC) 109 % of control | dose: 400.0 mg/kg/injection, schedule: Q01DX001 (ip), vehicle: Klucel (hydroxypropylcellulose) (HPC) 101 % of control

O=C(/C=C\c1ccc(NCc2ccc(C(=O)O)cc2)cc1)CCl
inactive: dose: 25.0 mg/kg/injection, schedule: Q04DX003 (ip), vehicle: Klucel (hydroxypropylcellulose) (HPC) 100 % of control | dose: 50.0 mg/kg/injection, schedule: Q01DX001 (ip), vehicle: carboxymethylcellulose (CMC) 91 % of control | dose: 50.0 mg/kg/injection, schedule: Q04DX003 (ip), vehicle: Klucel (hydroxypropylcellulose) (HPC) 90 % of control | [11] 95 % of control | dose: 200.0 mg/kg/injection, schedule: Q01DX001 (ip), vehicle: carboxymethylcellulose (CMC) 93 % of control | dose: 400.0 mg/kg/injection, schedule: Q01DX001 (ip), vehicle: carboxymethylcellulose (CMC) 98 % of control

COC(=O)c1ccccc1OC(=O)Nc1ccc(SC)cc1
inactive: dose: 50.0 mg/kg/injection, schedule: Q04DX002 (ip), vehicle: saline with Tween-80 96 % of control and 91 % of control | [14] 96 % of control | [20] 96 % of control and 104 % of control and 86 % of control | [3] 100 % of control | [15] 94 % of control and 89 % of control | [21] 95 % of control and 104 % of control | [4] 98 % of control | [16] 102 % of control and 115 % of control | [22] 93 % of control and 105 % of control and 107 % of control | [5] 97 % of control

CCCCC1=C(c2ccccc2)C(=O)OC1=O
inactive: [17] 95 % of control | [11] 88 % of control | [18] 95 % of control | [12] 98 % of control | [19] 100 % of control | [13] 89 % of control

CN(C)CCCN=C1Nc2ccccc2C(=NCCCN(C)C)Nc2ccccc21
inactive: dose: 12.5 mg/kg/injection, schedule: Q01DX009 (ip), vehicle: saline 97 % of control | [1] 102 % of control | dose: 25.0 mg/kg/injection, schedule: Q01DX009 (ip), vehicle: saline 97 % of control | [2] 98 % of control | dose: 50.0 mg/kg/injection, schedule: Q01DX009 (ip), vehicle: saline 94 % of control | dose: 50.0 mg/kg/injection, schedule: Q04DX003 (ip), vehicle: saline 104 % of control

CC(C)C(C#N)(CCN1CCCCC1)c1cccc2ccccc12 (stereo unspecified)
inactive: [17] 92 % of control

COc1ccc([N+](=O)[O-])cc1Br
inactive: [14] 100 % of control | [15] 96 % of control | [16] 98 % of control

COC1OCCCC1OC(=O)c1ccccc1 (stereo unspecified)
inactive: dose: 50.0 mg/kg/injection, schedule: Q01DX001 (ip), vehicle: saline 109 % of control | [23] 103 % of control | dose: 200.0 mg/kg/injection, schedule: Q01DX001 (ip), vehicle: saline 105 % of control | dose: 400.0 mg/kg/injection, schedule: Q01DX001 (ip), vehicle: saline 94 % of control
